Experimental data reported in patent US11370795B2, “Process for the synthesis of 6-[(3S,4S)-4-methyl-1-(pyrimidin-2-ylmethyl)pyrrolidin-3-yl]-3-tetrahydropyran-4-yl-7H-imidazo[1,5-a]pyrazin-8-one” (Imara Inc., priority 2017, dated 2022).

What was measured:
[1] = Blood Brain Barrier penetration (plasma and brain concentration); format: in vivo
[2] = Stability study of drug substance in sealed pouches; format: physicochemical; conditions: ambient temperature and 40° C.-45° C. (no humidity control), 3-month period, polyethylene pouches in aluminum pouch
Protocol: A stability study has been completed on Compound P3.1. Samples of Compound P3.1 were aliquoted into double-walled polyethylene pouches, which were tied off and then heat-sealed in an aluminum pouch. Samples were stored at ambient temperature and at 40° C.-45° C. (no humidity control) with testing performed over a 3-month period.

Brain concentration after 120 minutes ([1]; brain, 120 min) | Changes to appearance or purity of the material [2] | Kp at 0.5 h ([1]; brain/plasma, 30 min, read-out: Brain/Plasma ratio after 30 minutes) | Kp at 2 h ([1]; brain/plasma, 120 min, read-out: Brain/Plasma ratio after 120 minutes) | SMILES
detection limit |  |  |  | O=c1[nH]c(CN2CC(Oc3cccnc3)C2)cn2c(C3CCOCC3)ncc12 [Compound (P2)]
 | no changes to appearance or purity | 0.04 | 0.03 | C[C@@H]1CN(Cc2ncccn2)C[C@H]1c1cn2c(C3CCOCC3)ncc2c(=O)[nH]1 [Compound P3.1, 6-[(3S,4S)-4-methyl-1-(pyrimidin-2-ylmethyl)pyrrolidin-3-yl]-3-tetrahydropyran-4-yl-7H-imidazo[1,5-a]pyrazin-8-one]
